Key:
Assay in all cases: relative viability (nuclei count vs DMSO), 5 days (fraction); higher = more cells survive
[1] = compound: CN(C)C(=N)NC(=N)N [Metformin] + CC(C)C[C@H](NC(=O)[C@H](Cc1ccccc1)NC(=O)c1cnccn1)B(O)O [Bortezomib] (partner 0.002 µM)
In short: (§1)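 Five library-drug doses in √10 steps were combined with a fixed anchor-drug dose, or a single drug was given alone, by pin tool to lung cancer cell lines in 1536-well plates the day after seeding. Nuclei were stained and counted after 5 days. Relative viability is the nuclei count in treated wells over that in vehicle wells, taken as the median of duplicate plates.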

[2] = compound: N#CC1(c2ccc(NC(=O)c3cccnc3NCc3ccncc3)cc2)CCCC1 [Apatinib] + Cc1nc(Nc2ncc(C(=O)Nc3c(C)cccc3Cl)s2)cc(N2CCN(CCO)CC2)n1 [Dasatinib] (partner 0.075 µM)
In short: as §1

[3] = compound: CN(C)C(=N)NC(=N)N [Metformin] + CCNC(=O)c1noc(-c2cc(C(C)C)c(O)cc2O)c1-c1ccc(CN2CCOCC2)cc1 [Luminespib] (partner 0.01 µM)
In short: as §1

[4] = compound: CN(C)C(=N)NC(=N)N [Metformin] + C[C@@H](Oc1cc(-c2cnn(C3CCNCC3)c2)cnc1N)c1c(Cl)ccc(F)c1Cl [Crizotinib] (partner 1 µM)
In short: as §1

## NCI-H460
[1]; first compound 31.62 µM
  relative viability: 1.12
[1]; first compound 100 µM
  relative viability: 1.11
[1]; first compound 316.23 µM
  relative viability: 1.06
[1]; first compound 1000 µM
  relative viability: 1.19
[2]; first compound 0.08 µM
  relative viability: 0.468
[2]; first compound 0.253 µM
  relative viability: 0.477
[2]; first compound 0.8 µM
  relative viability: 0.426
[2]; first compound 2.53 µM
  relative viability: 0.487
[2]; first compound 8 µM
  relative viability: 0.413
[3]; first compound 10 µM
  relative viability: 0.048
[3]; first compound 31.62 µM
  relative viability: 0.0359
[3]; first compound 100 µM
  relative viability: 0.0322
[3]; first compound 316.23 µM
  relative viability: 0.0306
[3]; first compound 1000 µM
  relative viability: 0.0333
[4]; first compound 31.62 µM
  relative viability: 0.734
[4]; first compound 100 µM
  relative viability: 0.778
[4]; first compound 316.23 µM
  relative viability: 0.829
[4]; first compound 1000 µM
  relative viability: 0.916

— the supplement of paper PMC10307832
